The values below come from ChEMBL document CHEMBL4819090, “Discovery of a new series of PI3K-δ inhibitors from Virtual Screening” (Bioorg Med Chem Lett, 2021).

The target in data set [1] is Phosphatidylinositol 4,5-bisphosphate 3-kinase catalytic subunit gamma isoform (Homo sapiens, UniProt P48736). The data set is described as follows: Inhibition of PI3Kgamma (unknown origin) by HTRF assay.
Data set [2] concerns the target Phosphatidylinositol 4,5-bisphosphate 3-kinase catalytic subunit alpha isoform (Homo sapiens, UniProt P42336). The data set is described as follows: Inhibition of PI3Kalpha (unknown origin) by HTRF assay. Background: TR-FRET usually uses a lanthanide donor and a delayed reading to cut background.
The target in data set [3] is Phosphatidylinositol 4,5-bisphosphate 3-kinase catalytic subunit beta isoform (Homo sapiens, UniProt P42338). The data set is described as follows: Inhibition of PI3Kbeta (unknown origin) by HTRF assay.
The nature of data set [4]: Half life in Wistar Han rat at 2 mg/kg, iv. The data set is classed as ADME, organism-based. The note with it: in vivo.
Data set [5] can be described thus: Clearance in Wistar Han rat at 2 mg/kg, iv. It is filed as ADME, organism-based. The note with it: in vivo.
Data set [6] in a line: Volume of distribution in Wistar Han rat at 2 mg/kg, iv. Particulars: in vivo. It is filed as ADME, organism-based.

Phosphatidylinositol 4,5-bisphosphate 3-kinase catalytic subunit gamma isoform, sequence (P48736 whole entry, canonical isoform): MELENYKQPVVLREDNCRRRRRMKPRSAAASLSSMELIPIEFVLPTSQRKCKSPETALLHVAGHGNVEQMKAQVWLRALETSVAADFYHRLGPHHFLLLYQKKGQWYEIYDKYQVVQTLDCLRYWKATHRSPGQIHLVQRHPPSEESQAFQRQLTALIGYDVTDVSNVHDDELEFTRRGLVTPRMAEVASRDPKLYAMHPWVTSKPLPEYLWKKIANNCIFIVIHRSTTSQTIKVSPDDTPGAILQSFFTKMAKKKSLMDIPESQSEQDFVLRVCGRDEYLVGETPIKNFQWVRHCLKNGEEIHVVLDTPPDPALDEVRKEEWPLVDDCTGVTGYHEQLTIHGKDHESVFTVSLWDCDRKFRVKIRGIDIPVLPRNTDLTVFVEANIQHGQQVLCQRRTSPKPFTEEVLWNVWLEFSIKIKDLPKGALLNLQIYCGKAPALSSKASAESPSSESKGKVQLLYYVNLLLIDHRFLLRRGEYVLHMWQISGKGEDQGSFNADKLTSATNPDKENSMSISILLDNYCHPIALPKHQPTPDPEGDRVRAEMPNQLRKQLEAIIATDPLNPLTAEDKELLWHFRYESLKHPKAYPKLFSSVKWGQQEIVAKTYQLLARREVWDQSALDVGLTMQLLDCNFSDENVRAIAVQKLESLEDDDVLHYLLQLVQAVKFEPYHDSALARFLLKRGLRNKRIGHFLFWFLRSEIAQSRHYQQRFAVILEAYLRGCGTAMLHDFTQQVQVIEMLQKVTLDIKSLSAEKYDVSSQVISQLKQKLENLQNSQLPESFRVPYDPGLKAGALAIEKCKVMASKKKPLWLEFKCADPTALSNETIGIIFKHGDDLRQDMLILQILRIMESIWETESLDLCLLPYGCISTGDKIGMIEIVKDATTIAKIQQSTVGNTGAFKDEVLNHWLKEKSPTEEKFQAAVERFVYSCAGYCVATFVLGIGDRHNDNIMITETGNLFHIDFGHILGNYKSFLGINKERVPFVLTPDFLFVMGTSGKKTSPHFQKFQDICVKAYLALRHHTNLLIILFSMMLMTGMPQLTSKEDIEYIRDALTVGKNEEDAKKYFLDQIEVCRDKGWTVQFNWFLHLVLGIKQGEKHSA
Phosphatidylinositol 4,5-bisphosphate 3-kinase catalytic subunit beta isoform, sequence (P42338 whole entry, canonical isoform): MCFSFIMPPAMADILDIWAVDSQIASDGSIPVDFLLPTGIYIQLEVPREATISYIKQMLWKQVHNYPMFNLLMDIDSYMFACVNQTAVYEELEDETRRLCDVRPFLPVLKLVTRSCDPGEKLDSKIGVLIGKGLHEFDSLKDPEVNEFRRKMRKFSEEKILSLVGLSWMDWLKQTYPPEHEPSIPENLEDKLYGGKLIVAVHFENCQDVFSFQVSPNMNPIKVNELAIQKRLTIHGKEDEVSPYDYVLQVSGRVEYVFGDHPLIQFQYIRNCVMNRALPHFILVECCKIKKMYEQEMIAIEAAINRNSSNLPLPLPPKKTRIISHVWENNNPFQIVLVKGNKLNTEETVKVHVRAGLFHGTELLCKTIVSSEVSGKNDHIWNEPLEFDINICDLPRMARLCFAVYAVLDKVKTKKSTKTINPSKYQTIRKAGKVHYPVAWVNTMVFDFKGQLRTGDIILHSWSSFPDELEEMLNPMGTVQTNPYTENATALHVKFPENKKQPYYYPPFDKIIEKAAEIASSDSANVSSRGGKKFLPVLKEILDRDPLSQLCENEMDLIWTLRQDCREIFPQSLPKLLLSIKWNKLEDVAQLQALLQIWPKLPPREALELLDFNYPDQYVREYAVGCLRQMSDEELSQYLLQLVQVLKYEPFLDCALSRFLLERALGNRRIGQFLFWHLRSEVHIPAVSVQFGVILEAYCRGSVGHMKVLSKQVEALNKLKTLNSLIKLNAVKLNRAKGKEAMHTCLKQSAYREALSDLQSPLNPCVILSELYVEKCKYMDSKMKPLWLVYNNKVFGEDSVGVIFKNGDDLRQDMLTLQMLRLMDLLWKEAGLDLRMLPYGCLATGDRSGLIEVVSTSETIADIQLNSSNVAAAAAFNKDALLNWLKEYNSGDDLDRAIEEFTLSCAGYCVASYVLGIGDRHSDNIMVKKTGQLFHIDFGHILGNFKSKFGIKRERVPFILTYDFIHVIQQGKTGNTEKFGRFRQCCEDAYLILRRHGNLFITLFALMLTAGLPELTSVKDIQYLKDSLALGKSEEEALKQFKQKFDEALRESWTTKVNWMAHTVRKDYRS
Phosphatidylinositol 4,5-bisphosphate 3-kinase catalytic subunit alpha isoform, sequence (P42336 whole entry, canonical isoform): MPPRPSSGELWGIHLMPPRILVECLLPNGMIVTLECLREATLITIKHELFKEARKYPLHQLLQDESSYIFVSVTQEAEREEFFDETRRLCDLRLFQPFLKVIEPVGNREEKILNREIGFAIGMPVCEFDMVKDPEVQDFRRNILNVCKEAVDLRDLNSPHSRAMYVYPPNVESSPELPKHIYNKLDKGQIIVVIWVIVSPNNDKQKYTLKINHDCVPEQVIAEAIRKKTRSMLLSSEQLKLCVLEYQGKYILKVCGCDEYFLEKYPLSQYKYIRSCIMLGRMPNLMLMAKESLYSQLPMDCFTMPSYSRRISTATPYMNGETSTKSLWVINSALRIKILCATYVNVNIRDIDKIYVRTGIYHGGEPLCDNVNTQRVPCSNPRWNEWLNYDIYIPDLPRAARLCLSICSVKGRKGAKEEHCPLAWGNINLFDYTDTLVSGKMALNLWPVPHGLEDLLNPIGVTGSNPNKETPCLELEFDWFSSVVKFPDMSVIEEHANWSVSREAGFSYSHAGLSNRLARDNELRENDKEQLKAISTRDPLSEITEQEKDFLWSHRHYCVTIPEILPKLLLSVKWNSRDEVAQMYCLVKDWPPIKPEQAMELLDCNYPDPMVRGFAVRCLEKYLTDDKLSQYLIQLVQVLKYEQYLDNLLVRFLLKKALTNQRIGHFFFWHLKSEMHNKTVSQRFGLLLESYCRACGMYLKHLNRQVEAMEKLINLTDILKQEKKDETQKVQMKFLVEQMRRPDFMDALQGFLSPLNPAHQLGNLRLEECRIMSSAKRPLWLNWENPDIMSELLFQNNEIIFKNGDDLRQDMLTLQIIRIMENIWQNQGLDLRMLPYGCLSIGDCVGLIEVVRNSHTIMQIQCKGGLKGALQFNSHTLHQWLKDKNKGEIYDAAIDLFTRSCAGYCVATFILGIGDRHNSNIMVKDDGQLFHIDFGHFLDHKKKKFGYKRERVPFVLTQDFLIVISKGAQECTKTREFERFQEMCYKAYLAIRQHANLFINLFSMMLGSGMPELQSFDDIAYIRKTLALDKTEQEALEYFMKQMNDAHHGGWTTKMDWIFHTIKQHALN

As usually defined, the IC50 is the concentration at which inhibition is half-maximal. Read a high IC50 as weaker potency in that assay. In the case of `O=C1NCc2c1cc(O[C@@H]1CCN(C(=O)C3CC3)C1)cc2-c1cncc(O)c1`, the IC50 in data set [1] turned out to be 3.06 µM.
Molecule `O=C1NCc2c1cccc2-c1cc(O)cc(F)c1` came in with an IC50 in data set [1] of over 10 µM.
Turning to `Cn1ncc2cc(-c3cc(OC4CN(C(=O)C5CC5)C4)cc4c3CNC4=O)cnc21`, in data set [1], the IC50 is over 10 µM.
Same read-out and setting: to `O=C1NCc2c1cc(O[C@@H]1CCN(C(=O)C3CC3)C1)cc2-c1cc(O)cc(F)c1` belongs 1.8 µM; to `Cc1ncc(-c2cc(O[C@@H]3CCN(C(=O)C4CC4)C3)cc3c2CNC3=O)cc1NS(C)(=O)=O`, 3.01 µM.
Still for that read-out and setting: then `O=C1NCc2c1cc(NCCCc1ccccc1)cc2-c1cc(O)cc(F)c1`, with 2.02 µM; and `O=C1NCc2c1cc(-c1cccc(F)c1)cc2-c1cc(O)cc(F)c1`, with over 10 µM; and `O=C1NCc2c1cc(NCCCc1ccccc1)cc2-c1cccc(O)c1`, with 4.33 µM.
In turn, `O=C1NCc2c1cc(OC1CN(C(=O)C3CC3)C1)cc2-c1cnc(Cl)c(OC(F)F)c1` had an IC50 in data set [1] of over 10 µM.
With `COc1ccc(-c2cc(O[C@@H]3CCN(C(=O)C4CC4)C3)cc3c2CNC3=O)cn1`, the IC50 in data set [1] was found to be 4.74 µM.
`O=C1NCc2c1cc(NCCCN1CCOCC1)cc2-c1cccc(O)c1`: the IC50 in data set [2] is 25 µM; in data set [3], 5.15 µM; in data set [1], over 50 µM.
As to `CNc1ncc(-c2cc(OC3CN(C(=O)C4C[C@H]4C)C3)cc3c2CNC3=O)cc1C(F)(F)F` (stereo partly drawn), the IC50 in data set [1] was over 10 µM.
The half-life is the time needed for the level to fall by half in the phase considered. A lower half-life goes with rapid decline. One may read the clearance as the volume of plasma or blood freed of the substance per unit of time. Low values mean inefficient removal, high ones efficient removal. In general, Vd refers to a proportionality between amount in the body and measured concentration, not a real space. Low readings indicate confinement near the circulation, high ones extensive tissue distribution. In data set [4], `O=C1NCc2c1cc(OC1CN(C(=O)C3CC3)C1)cc2-c1ccc(OC(F)F)nc1` gave a half-life of 3.7 h. This molecule showed a clearance in data set [5] of 6.3 mL/min/kg. In data set [1], this molecule yielded an IC50 of over 10 µM. This molecule gave a Vd in data set [6] of 1.4 L/kg.
In the case of `Nc1ncc(-c2cc(OC3CN(C(=O)C4CC4)C3)cc3c2CNC3=O)cc1C(F)(F)F`, in data set [1], the 50% inhibitory concentration (IC50) was over 10 µM.
In the case of `C[C@@H]1CN(Cc2nnc(-c3cc4c(c(-c5cc(O)cc(F)c5)c3)CNC4=O)o2)C[C@H](C)O1`, half-maximal inhibition in data set [1] (IC50) was put at 7.39 µM.
The same measure, in the same setting: to `O=C1NCc2c1cc(O[C@@H]1CCN(C(=O)C3CC(F)(F)C3)C1)cc2-c1cc(O)cc(F)c1` belongs 1.35 µM; to `O=C1NCc2c1cc(O[C@@H]1CCN(C(=O)C3CC3)C1)cc2-c1cnc(F)c(O)c1`, 1.09 µM; to `O=C1NCc2c1cc(O[C@@H]1CCN(C(=O)C3CCOCC3)C1)cc2-c1cc(O)cc(F)c1`, 3.13 µM.
